Active and inactive are the calls of the source.
What was measured:
[1] = molecular target: T1, Histone-lysine N-methyltransferase NSD2 (Homo sapiens, UniProt O96028); assay type: biochemical
T1 sequence (O96028 whole entry): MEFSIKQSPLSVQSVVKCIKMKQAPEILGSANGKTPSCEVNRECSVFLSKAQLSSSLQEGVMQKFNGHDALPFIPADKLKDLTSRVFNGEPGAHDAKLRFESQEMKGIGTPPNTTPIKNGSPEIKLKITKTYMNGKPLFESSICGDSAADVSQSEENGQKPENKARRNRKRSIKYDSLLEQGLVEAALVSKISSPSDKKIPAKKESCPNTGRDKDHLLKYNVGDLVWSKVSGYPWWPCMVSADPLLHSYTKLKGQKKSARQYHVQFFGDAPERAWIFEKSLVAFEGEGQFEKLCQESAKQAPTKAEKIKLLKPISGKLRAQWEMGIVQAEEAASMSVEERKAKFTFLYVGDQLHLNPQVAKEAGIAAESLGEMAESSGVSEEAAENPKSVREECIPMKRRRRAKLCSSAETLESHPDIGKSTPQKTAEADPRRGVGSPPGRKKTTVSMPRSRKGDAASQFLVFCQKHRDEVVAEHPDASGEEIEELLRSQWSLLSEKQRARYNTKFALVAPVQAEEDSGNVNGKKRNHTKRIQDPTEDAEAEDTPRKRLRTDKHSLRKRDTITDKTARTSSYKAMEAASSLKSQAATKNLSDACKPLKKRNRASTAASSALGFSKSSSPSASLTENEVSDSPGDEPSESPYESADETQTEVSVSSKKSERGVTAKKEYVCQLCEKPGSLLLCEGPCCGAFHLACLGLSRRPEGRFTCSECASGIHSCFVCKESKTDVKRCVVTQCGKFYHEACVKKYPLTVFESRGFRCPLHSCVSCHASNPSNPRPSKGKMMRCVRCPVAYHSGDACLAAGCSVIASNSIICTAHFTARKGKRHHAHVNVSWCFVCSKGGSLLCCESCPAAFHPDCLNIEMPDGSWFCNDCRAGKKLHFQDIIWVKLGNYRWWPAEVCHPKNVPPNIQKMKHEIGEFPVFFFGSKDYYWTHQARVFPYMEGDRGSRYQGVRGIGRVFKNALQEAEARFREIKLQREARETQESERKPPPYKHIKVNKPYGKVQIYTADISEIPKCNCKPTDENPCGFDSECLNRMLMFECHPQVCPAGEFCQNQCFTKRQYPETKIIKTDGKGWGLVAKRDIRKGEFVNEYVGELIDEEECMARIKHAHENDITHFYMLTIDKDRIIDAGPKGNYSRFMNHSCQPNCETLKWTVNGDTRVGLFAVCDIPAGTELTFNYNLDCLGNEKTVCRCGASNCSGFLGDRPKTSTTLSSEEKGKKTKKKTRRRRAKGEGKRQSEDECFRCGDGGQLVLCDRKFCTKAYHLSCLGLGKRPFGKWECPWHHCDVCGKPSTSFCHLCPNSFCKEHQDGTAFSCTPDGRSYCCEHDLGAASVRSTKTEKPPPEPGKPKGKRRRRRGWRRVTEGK

Nonstructural protein 1 = Nonstructural protein 1 (Influenza A virus, UniProt Q194T2); assay type: functional, Influenza A virus (A/California/07/2009(H1N1))
[2] = molecular target: Mitogen-activated protein kinase 10 (Homo sapiens, UniProt P53779); assay: Dose response biochemical screening assay for inhibitors of c-Jun N-Terminal Kinase 3 (JNK3). [Related pubchem assays: 746 ]
Mucolipin-3 = molecular target: T2, Mucolipin-3 (Homo sapiens, UniProt Q8TDD5); assay: Dose response cell-based high-throughput screening assay for agonists of the transient receptor potential channel ML3 (TRPML3). [Related pubchem assays: 1526, 1424, 1448 ]; assay type: functional
T2 sequence (Q8TDD5 whole entry): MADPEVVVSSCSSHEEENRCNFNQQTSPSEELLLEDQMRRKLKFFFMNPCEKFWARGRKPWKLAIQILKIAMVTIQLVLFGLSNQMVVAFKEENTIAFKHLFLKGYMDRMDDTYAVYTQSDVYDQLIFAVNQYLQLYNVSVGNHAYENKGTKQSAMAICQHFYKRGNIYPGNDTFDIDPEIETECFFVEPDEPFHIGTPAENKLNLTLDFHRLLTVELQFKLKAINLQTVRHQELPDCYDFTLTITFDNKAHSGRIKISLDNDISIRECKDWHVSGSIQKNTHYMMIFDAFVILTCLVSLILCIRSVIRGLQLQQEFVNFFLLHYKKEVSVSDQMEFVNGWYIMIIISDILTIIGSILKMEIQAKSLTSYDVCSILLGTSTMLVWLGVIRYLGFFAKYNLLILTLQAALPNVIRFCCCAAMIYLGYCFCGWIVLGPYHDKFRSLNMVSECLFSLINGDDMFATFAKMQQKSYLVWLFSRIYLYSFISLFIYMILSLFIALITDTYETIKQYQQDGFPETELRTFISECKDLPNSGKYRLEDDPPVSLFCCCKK

Ion channel NompC = Ion channel NompC (Danio rerio, UniProt Q7T1G6); assay: Fluorescence counterscreen assay for TRPML3 agonists: dose response cell-based high-throughput screening assay to identify agonists of the transient receptor potential channel N1 (TRPN1). [Related pubchem assays: 1526, 1424, 1448 ]; assay type: functional
NS3 = NS3 (Hepatitis C virus, UniProt A3EZJ3); assay: PubChem AID 2173; set-up: species or system Hepacivirus hominis
[3] = molecular target: T3, Short transient receptor potential channel 4 (Mus musculus, UniProt Q9QUQ5); assay: mouse TRPC4 channel inhibitors, dose response, cell-based, HEK293 TRPC4/mu-opioid, Fluo-4 calcium (AID 434942); assay type: functional;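 note: potency of inhibitors blocking the TRPC4 calcium response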
T3 sequence (Q9QUQ5 whole entry): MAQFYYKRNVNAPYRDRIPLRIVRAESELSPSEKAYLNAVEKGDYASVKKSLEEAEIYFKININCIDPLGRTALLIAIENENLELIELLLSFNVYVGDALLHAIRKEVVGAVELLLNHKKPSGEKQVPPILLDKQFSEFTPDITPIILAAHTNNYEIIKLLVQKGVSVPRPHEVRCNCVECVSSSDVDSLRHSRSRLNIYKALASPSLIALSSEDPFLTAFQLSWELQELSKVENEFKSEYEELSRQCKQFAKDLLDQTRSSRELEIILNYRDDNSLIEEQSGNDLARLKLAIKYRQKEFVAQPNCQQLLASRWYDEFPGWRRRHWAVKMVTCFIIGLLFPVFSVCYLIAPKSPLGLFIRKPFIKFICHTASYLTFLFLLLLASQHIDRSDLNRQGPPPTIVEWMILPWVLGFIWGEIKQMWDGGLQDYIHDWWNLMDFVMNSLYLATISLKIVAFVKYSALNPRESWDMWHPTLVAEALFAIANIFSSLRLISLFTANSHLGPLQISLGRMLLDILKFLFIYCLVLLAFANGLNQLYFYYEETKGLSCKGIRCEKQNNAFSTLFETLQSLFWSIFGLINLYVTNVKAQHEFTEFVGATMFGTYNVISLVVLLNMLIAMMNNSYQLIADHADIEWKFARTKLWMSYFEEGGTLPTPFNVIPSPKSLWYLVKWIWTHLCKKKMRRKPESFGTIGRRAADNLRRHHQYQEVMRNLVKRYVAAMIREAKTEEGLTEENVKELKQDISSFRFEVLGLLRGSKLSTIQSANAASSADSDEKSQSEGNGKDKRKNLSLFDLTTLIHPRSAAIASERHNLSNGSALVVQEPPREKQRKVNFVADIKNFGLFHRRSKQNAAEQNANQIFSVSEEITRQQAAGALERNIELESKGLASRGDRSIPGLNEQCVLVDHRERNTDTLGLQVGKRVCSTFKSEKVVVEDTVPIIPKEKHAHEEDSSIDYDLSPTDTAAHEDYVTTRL

[4] = THP-1 cell cytotoxicity, dose response, cytotoxicity control for Vif-APOBEC3G degradation inhibitor project, THP-1 cells (AID 1117359); assay type: functional; settings: Human immunodeficiency virus 1, THP-1
[5] = molecular target: T4, Glutathione-S-transferase (Schistosoma japonicum, UniProt Q26513); assay: biotin-GST/anti-GST TR-FRET signal inhibitors, dose response, artefact control for Vif-APOBEC3G degradation inhibitor project, biochemical (AID 1117362); assay type: functional
T4 sequence (Q26513 whole entry): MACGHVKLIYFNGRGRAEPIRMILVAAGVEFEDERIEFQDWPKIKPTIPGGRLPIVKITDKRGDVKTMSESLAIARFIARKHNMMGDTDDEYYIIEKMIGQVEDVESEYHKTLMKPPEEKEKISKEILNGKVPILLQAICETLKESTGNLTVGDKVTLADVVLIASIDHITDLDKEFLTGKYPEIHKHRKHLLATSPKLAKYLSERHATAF

[6] = growth suppression of beta-catenin-knockout colon cells, dose response, cell-based, HCT116, human colon tumor (AID 1045); assay type: functional;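 note: HCT116 colon tumor cells with beta catenin knocked out; cells exposed to compound for 60 hours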
[7] = growth suppression of PTEN-null colon cells, dose response, cell-based, HCT116 PTEN knockout (AID 1047); assay type: functional;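 note: HCT116 colon tumor cells with PTEN knocked out; cells exposed to compound for 60 hours before readout; potency for loss of cell viability measured by luminescence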
Protein RecA = molecular target: T5, Protein RecA (Mycobacterium tuberculosis, UniProt P9WHJ3); assay: Fluorescence Cell-Free Homogeneous Dose Retest to Identify Inhibitors of RecA-Intein Splicing Activity. [Related pubchem assays (depositor defined):AID2097, AID2223, AID489010, AID492950]; assay type: functional
T5 sequence (P9WHJ3 whole entry): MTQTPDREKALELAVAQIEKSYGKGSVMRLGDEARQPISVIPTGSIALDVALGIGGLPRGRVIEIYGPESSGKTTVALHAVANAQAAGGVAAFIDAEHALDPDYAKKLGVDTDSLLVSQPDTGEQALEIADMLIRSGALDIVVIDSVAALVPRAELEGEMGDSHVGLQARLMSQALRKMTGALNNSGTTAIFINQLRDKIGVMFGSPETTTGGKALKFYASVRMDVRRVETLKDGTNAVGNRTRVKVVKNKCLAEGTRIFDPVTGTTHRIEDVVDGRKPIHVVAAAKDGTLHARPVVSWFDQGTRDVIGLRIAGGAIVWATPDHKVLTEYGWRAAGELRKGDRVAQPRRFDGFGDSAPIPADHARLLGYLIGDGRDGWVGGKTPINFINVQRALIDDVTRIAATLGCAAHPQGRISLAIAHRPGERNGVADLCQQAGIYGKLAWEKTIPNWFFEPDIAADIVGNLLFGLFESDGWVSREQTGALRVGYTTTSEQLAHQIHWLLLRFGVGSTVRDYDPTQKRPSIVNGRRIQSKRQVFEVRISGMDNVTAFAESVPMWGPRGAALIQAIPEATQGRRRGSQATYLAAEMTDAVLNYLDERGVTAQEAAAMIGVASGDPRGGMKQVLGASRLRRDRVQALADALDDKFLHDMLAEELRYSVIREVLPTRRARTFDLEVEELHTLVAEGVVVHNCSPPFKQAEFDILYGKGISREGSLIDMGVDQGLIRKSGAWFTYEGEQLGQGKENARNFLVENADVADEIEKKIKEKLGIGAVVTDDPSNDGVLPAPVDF

[8] = molecular target: T6, Replicative DNA helicase DnaB (Mycobacterium tuberculosis, UniProt P9WMR3); assay: DnaB intein splicing inhibitors, dose response, biochemical, cell-free fluorescence (AID 449749); assay type: functional
T6 sequence (P9WMR3 whole entry): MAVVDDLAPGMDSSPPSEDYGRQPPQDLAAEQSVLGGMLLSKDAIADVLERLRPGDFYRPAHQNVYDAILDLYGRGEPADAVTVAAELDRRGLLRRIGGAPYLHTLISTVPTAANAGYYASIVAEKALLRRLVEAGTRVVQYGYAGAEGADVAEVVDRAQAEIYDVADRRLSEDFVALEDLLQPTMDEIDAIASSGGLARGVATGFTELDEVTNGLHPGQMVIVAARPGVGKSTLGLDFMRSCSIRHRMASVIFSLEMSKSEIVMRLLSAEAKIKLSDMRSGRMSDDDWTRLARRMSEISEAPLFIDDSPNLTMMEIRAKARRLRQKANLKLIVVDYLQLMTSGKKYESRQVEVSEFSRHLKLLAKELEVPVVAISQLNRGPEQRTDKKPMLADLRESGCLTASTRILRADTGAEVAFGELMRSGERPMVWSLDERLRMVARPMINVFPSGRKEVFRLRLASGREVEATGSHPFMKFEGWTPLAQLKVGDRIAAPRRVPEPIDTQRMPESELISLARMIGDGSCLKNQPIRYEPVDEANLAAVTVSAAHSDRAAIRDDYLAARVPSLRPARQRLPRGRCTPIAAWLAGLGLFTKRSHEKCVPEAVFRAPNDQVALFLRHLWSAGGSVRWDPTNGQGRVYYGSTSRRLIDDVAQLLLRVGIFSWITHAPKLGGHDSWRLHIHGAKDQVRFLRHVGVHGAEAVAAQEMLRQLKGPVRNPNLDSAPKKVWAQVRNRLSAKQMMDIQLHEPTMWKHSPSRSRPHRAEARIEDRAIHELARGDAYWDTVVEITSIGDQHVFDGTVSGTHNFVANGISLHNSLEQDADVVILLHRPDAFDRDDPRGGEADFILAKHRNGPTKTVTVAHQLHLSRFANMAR

Chain of Ion channel NompC (Q7T1G6 whole entry): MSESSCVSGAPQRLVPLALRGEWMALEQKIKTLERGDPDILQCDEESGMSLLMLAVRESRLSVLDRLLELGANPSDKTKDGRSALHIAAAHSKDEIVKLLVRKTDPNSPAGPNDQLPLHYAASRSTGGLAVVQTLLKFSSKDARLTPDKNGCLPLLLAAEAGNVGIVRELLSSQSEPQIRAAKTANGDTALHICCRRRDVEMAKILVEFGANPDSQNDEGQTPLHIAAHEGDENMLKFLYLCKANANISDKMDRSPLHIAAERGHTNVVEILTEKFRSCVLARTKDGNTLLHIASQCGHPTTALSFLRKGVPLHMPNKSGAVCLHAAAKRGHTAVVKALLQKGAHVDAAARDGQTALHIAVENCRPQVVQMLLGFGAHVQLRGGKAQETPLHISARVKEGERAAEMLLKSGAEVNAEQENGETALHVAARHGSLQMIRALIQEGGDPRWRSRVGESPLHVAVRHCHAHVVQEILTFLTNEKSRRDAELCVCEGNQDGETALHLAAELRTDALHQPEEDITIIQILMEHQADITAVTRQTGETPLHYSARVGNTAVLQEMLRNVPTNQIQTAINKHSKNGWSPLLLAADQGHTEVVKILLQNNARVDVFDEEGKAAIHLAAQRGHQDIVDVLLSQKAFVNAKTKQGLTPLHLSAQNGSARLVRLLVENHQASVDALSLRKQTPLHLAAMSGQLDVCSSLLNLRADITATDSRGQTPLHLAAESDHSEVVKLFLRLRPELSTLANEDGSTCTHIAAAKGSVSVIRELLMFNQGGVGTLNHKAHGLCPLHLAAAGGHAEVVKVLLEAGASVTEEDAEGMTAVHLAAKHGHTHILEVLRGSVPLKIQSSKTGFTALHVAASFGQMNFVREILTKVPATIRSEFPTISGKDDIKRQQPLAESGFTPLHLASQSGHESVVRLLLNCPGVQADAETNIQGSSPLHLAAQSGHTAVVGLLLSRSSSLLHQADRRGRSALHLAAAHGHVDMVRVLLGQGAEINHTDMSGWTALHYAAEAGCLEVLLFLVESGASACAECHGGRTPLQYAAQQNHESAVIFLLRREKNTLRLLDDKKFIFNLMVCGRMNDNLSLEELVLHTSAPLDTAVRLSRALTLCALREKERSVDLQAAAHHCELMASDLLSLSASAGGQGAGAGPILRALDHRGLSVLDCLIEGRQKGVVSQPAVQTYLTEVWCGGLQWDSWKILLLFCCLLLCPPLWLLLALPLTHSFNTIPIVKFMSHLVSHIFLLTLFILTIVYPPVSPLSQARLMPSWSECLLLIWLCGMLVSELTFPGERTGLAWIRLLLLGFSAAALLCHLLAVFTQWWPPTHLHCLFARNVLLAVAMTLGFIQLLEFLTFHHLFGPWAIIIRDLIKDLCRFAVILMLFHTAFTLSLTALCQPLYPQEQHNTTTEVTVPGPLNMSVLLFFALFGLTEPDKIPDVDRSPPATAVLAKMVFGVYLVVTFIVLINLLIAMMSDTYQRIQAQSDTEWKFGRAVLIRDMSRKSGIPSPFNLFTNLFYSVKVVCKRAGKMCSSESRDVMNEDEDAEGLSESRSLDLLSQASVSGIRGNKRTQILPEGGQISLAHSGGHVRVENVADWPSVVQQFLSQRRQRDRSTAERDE
Chain of Mitogen-activated protein kinase 10 (P53779 whole entry): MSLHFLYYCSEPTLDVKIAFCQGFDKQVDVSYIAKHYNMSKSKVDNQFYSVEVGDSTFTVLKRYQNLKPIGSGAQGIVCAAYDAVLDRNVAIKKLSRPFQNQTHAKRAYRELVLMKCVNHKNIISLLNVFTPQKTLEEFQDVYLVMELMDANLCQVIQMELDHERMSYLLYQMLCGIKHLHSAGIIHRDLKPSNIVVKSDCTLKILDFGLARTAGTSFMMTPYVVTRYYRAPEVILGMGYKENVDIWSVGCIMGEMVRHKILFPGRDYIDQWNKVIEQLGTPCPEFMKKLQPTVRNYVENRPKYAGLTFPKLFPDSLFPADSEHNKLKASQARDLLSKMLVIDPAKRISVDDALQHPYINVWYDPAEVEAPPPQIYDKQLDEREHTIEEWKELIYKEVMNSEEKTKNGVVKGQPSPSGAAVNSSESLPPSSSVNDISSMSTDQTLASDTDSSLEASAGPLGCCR
Chain of NS3 (A3EZJ3 whole entry): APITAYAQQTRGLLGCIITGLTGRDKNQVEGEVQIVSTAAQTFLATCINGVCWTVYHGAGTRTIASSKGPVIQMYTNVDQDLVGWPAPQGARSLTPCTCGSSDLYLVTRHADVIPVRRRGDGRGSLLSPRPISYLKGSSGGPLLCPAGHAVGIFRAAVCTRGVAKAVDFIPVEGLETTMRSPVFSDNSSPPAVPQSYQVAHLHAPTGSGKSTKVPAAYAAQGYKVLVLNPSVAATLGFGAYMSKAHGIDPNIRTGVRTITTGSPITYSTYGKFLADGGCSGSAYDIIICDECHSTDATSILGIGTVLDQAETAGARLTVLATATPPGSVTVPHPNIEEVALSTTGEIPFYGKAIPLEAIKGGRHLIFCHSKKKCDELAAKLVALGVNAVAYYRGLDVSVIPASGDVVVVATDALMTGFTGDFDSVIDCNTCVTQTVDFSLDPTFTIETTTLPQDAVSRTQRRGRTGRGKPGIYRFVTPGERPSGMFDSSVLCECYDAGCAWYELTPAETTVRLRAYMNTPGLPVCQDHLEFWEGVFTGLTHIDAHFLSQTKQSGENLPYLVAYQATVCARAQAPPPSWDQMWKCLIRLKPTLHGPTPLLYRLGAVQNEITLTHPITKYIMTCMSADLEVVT
Chain of Nonstructural protein 1 (Q194T2 whole entry): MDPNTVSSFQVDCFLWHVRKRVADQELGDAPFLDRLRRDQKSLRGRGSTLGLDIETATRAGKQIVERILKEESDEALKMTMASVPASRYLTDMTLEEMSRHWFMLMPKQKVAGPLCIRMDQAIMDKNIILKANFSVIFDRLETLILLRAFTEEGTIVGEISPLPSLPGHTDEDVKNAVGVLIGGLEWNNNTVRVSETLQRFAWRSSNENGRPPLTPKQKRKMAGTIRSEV

In the case of `Cc1[nH]c(=O)[nH]c1C(=O)CCCCC(=O)OCC(=O)Nc1ccccn1`, the AC50 [1] is reported as 1.26 µM (active), the IC50 (Nonstructural protein 1) is reported as 1.98 µM (active) and the IC50 [2] is reported as > 93.1 µM (not active).

For `O=S(=O)(c1ccc(Cl)cc1Br)N1CCCCC1`, the EC50 (Mucolipin-3) was > 29.9 µM (not active) and the EC50 (Ion channel NompC) was > 29.9 µM (not active).

In the case of `CC1CCc2nc(N)c(C#N)c(-c3ccncc3)c2C1` (centres undefined), the IC50 [2] is reported as > 93.1 µM (not active).

In the case of `CCCOc1ccc(-c2nc(SCc3ccccc3)[nH]c(=O)c2C#N)cc1OC`, the IC50 (NS3) is reported as 1.72 µM (active), the AC50 [1] is reported as > 20 µM (inactive) and the EC50 [3] is reported as 4.73 µM (active).

For `COc1ccc(S(=O)(=O)NC2CCCC2)c(Cl)c1Cl`, the EC50 (Mucolipin-3) was 3.55 µM (active) and the EC50 (Ion channel NompC) was > 29.9 µM (not active).

With `CC[n+]1c(/C=C2\C=C(C)CC(C)(C)C2)sc2ccccc21` the CC50 [4] was 4.22 µM (active), the IC50 [5] was > 100 µM (active) and the EC50 [6] was 9.81 µM (active). For the same molecule, the EC50 [7] was 11.7 µM (active), the EC50 (Protein RecA) was 27.3 µM (active) and the AC50 [8] was > 380 µM (inactive).

For `O=C(Nc1nc(-c2ccc3ccccc3c2)cs1)C1CCN(S(=O)(=O)c2cccs2)CC1`, the EC50 (Mucolipin-3) was 14.2 µM (not active) and the EC50 (Ion channel NompC) was > 29.9 µM (not active).

From ChEMBL document CHEMBL1201862, “PubChem BioAssay data set” (2004)
